According to patent US8722043B2, “Induction of p53 expression by neutralization of neuropilin-2 for the treatment of cancers” (Diaclone, priority 2008, dated 2014):

Key:
Assay type in all cases: cell-based, human
p53 protein = assay: p53 expression in Colo320 cells expressing siRNA-NRP-2 (flow cytometry, Western blotting); conditions: Colo320^siRNA-NRP-2 versus Colo320^siRNA-ctrl
From the text: FIG. 7 represents the results obtained by flow cytometry for the HT29-ctrl (panel A), HT29-NRP-2 (panel B), Colo320^siRNA-ctrl (panel C) and Colo320^siRNA-NRP-2 (panel D) cells labelled with an anti-p53 antibody. The curves in black lines represent the results of the labelling with a control antibody, and the curves in grey lines represent the results of the labelling with the anti-p53 antibody. The number of events (the number of cells) is indicated on the y-axis, the fluorescence intensity (corresponding to the labelling of the cells with the anti-p53 antibody) is represented on the x-axis.
The protein extracts of the HT29-ctrl, HT29-NRP-2, Colo320^siRNA-ctrl and Colo320^siRNA-NRP-2 lines were also analysed by Western blotting using an anti-p53 antibody. After lysis of the cell lines, migration of the protein pellets obtained on a 10% polyacrylamide gel (10 μg of protein per well, standardized relative to the immunoblotting of actin), and then transfer onto a PVDF membrane, the PVDF membrane was incubated overnight with the p53 primary antibody (BD Biosciences, mouse anti-human p53) diluted to 1/500. The membranes, after washing in TBS/0.1% Tween20, were incubated for 1 hour with an anti-mouse HRP secondary antibody diluted to 1/12 500. The results are represented in FIG. 8.

Colo320 cells = assay: MTT proliferation assay in the presence of siRNA-NRP-2; conditions: Colo320^siRNA-NRP-2 versus Colo320^siRNA-ctrl; 24, 48 and 72 hours
Experimental: The MTT proliferation assay is based on the reduction of 3-(4,5-dimethylthiazol-2-yl)-2,5-diphenyltetrazolium bromide), by the mitochondrial succinate dehydrogenase of active live cells, to give formazan. The coloration intensity (OD) induced by this reaction is proportional to the number of live cells present during the assay, and to the metabolic activity thereof.
4000 HT29ctrl, HT29-NRP-2, Colo320^siRNA-ctrl or Colo320^siRNA-NRP-2 cells were seeded into a 96-well Maxisorp plate, in 100 μl of DMEM medium containing 10% of inactivated FCS. The assay was carried out in triplicate. At 24, 48 and 72 hours, respectively, 10 μl of MTT at 5 mg/ml were added to each well. After 2 hours of incubation at 37° C., 5% CO2, 200 μl of DMSO were added to each well after shaking, and the OD was read at 570 nm using a spectrophotometer. The results of these experiments are represented in FIG. 4.
FIGS. 4.A and 4.B are histograms representing the results obtained in the proliferation assay carried out respectively with the HT29ctrl and HT29-NRP-2 cells and with the Colo320^siRNA-ctrl and Colo320^siRNA-NRP-2 cells. The coloration intensity (the optical density “OD”) corresponding to the production of formazan by the cells is indicated on the y-axis, and the times at which the viability tests were carried out are indicated on the x-axis. […]

NRP-2 protein = assay: NRP-2 expression after siRNA transfection (flow cytometry, C9 antibody); conditions: Colo320 cells transfected with pFiv H1/U6puro siRNA-NRP-2, from D7
Experimental: The Colo320 line naturally expressing neuropilin-2 at its membrane surface was transfected with the plasmid pFiv H1/U6puro siRNA-NRP-2 using the Effectene® kit, Qiagen). In parallel, Colo320 cells were transfected with a control siRNA (siRNA-ctrl) provided with the pFiv H1/U6puro SiRNA expression vector kit (System Biosciences). The Colo320^siRNA-NRP-2 and Colo320^siRNA-ctrl transfected cells were then selected at D2 with 2 μg/ml of puromycin. The efficiency of the transfection was evaluated from D7 onwards by labelling with a murine anti-human NRP-2 IgG antibody (Clone C9, Santa Cruz Biotechnology) by flow cytometry: the results obtained are represented in FIG. 3.
For each of the panels of FIG. 3, the number of events (the number of cells) is indicated on the y-axis, the fluorescence intensity (corresponding to the label of the cells with the anti-NRP-2 antibody C9) is represented on the x-axis. The distribution curves in black lines represent the results obtained after labelling with a control antibody, the distribution curves in grey lines represent the results obtained after labelling with the C9 antibody.

siRNA-NRP-2: double-stranded siRNA directed against the NRP-2 transcripts, sense SEQ ID No. 31, antisense SEQ ID No. 32, expressed from plasmid (sense GGCUGGAAGUCAGCACUAAUUU; antisense AUUAGUGCUGACUUCCAGCCUU)
p53 expression (Western blotting) (p53 protein): strongly expressed | p53 expression (flow cytometry) (p53 protein): restoration of p53 expression | proliferation and survival (OD at 570 nm) (Colo320 cells): OD decreases | expression of the NRP-2 protein (NRP-2 protein): efficiently inhibited
